# Reference: a melting point compilation (Tetko et al.)
row,melting point [°C],SMILES
1,143 to 145,CNC(=O)COc1ccc(CC(=O)O)cc1
2,86 to 88,OC(c1ccccc1)(c1ccc(F)cc1)c1ccc(F)cc1
3,86 to 88,O=[N+]([O-])c1ccc(NC2CCCC2)cc1
4,99 to 100,Cc1nc(N)ccc1I
5,93 to 95,CC(C)Oc1ccc(S(=O)(=O)Cl)c2ccccc12
6,250 to 255,Cc1ccc(-c2nnc(O)c3ccccc23)cc1
7,85 to 87,CCS(=O)(=O)c1ccc(Cl)cc1N
8,177 to 179,N#CCc1nc(-c2ccc(C#N)cc2)cs1
9,104 to 106,O=C(O)CCCCNC(=O)OCc1ccccc1
10,184 to 186,O=C(O)Cc1c[nH]c2cccc(Br)c12
11,136 to 138,Nc1ccccc1-n1ccc(C(=O)O)n1
12,116 to 118,COc1cc(C)nc(NN)n1
13,122 to 124,O=C(O)CCCN1C(=S)CSC1=S
14,159 to 161,Clc1ccc2cc(Br)ccc2n1
15,218 to 220,CCOC(=O)c1c(C)nn2c(=O)cc(CCl)[nH]c12
16,133 to 135,CCOc1ccc(S(N)(=O)=O)cn1
17,86 to 88,O=C(O)C1CCCN(c2ncccc2C(F)(F)F)C1 (centres undefined)
18,254 to 256,O=C(O)C1CC(=O)N(c2ccc3c(c2)Cc2ccccc2-3)C1 (centres undefined)
19,215 to 217,O=C(O)c1cc(-c2cccc(Br)c2)nc2ccccc12
20,157 to 159,Nc1ccc2[nH]nc(N)c2c1
21,33 to 35,Nc1ccnn1Cc1ccsc1
22,195 to 197,Clc1nccn2cnnc12
23,123 to 125,O=C(O)COc1ccc(Cl)cc1Br
24,97 to 99,O=C(O)CCC(=O)c1cc(Cl)ccc1Cl
25,193 to 195,O=C(O)c1nc(-c2ccccc2)oc1-c1ccccc1
26,152 to 154,CC(=O)c1c(C)[nH]c(C(=O)C(C)Cl)c1C (centres undefined)
27,196 to 198,N#Cc1ccc(Cc2cnc(N)s2)c(C(F)(F)F)c1

row,melting point [°C],SMILES
1,227 to 229,O=C(O)c1cc2ccc(F)cc2[nH]1
2,235 to 237,O=C(O)Cn1c(-c2cccc(Cl)c2Cl)nc2ccccc21
3,41 to 43,CCN(C)c1ccc(C(C)=O)cc1
4,141 to 143,Cc1cc(N)ccc1NS(C)(=O)=O
5,164 to 166,CC(O)c1ccc(NC(=O)c2ccccc2)cc1 (centres undefined)
6,219 to 221,O=C(O)c1ccc(S)c(Cl)c1
7,259 to 261,Cc1ccc(-n2ccnc2)c(C(=O)O)c1
8,127 to 129,Nc1ncc(Cc2ccc(Cl)cc2)s1
9,74 to 76,CC(=O)c1c(C)nn(C(C)C)c1C
10,104 to 106,CN(C)S(=O)(=O)c1ccc(F)c(N)c1
11,106 to 110,O=C(O)Cc1csc(-c2cccc(Br)c2)n1
12,100 to 102,Cc1cc(NC(=O)OCC(F)(F)F)n(C)n1
13,133 to 135,CC(C)c1ncc(C(=O)O)s1
14,145 to 147,Cc1nc(-c2ccccn2)nc(O)c1C
15,289 to 291,O=C(O)c1ccc(S(=O)(=O)Nc2nccs2)cc1
16,39 to 42,C=CS(=O)(=O)Oc1ccccc1
17,78 to 80,N#Cc1cc(N)ccc1OCC(F)(F)F
18,37 to 39,COC(=O)C(=O)C=C(C)OC
19,127 to 129,C#Cc1cccc(NCC(=O)NC)c1
20,130 to 132,Cc1nn(CC(F)(F)F)c(C)c1C(C)C(=O)O (centres undefined)
21,76 to 78,Fc1cc(F)c2cccnc2c1
22,66 to 68,OCCc1ccc2ccccc2c1
23,109 to 111,Cc1nc(C)n(Cc2cccc(N)c2)n1
24,174 to 176,COc1cc(N)c([N+](=O)[O-])cc1OC
25,43 to 47,COCCOc1ccc(C(F)(F)F)cc1N
26,167 to 169,O=C(O)c1cc([N+](=O)[O-])ccc1Oc1ccccc1
27,134 to 136,Cn1nc(C(=O)NN)c2ccccc2c1=O

row,melting point [°C],SMILES
1,136 to 138,O=C(O)CN(Cc1cccnc1)c1ccccc1
2,82 to 84,CN(CCO)c1ccc(N)nc1
3,155 to 157,NCC(CCC(=O)O)C(F)(F)F (centres undefined)
4,57 to 59,c1ccc2cc(C3CO3)ccc2c1 (centres undefined)
5,55 to 58,COC(=O)c1ccc(CC#N)cc1
6,40 to 44,O=[N+]([O-])c1cc(F)ccc1S(=O)(=O)Cl
7,84 to 86,CNCCNS(=O)(=O)c1ccc(C)cc1
8,237 to 239,CCc1ccc(-c2nn[nH]n2)cc1
9,77 to 79,CS(=O)(=O)CCCOc1cccc2c1CCC2O (centres undefined)
10,175 to 177,Cc1cccc(NC(=O)C2CCNCC2)n1
11,217 to 219,CC(=O)c1ccc2c(c1)CC(=O)N2
12,110 to 112,CS(=O)c1cccc(N)c1 (centres undefined)
13,80 to 82,CCOC(=O)Nc1snc(C)c1C(C)=O
14,88 to 90,Nc1ccccc1N1CCOC1=O
15,157 to 159,O=C(O)CCc1ccc(S(=O)(=O)Cl)cc1
16,132 to 134,COc1ccc(S(=O)(=O)Nc2ncc(Br)s2)cc1
17,148 to 150,CC(C)n1cc(Br)cc1C(=O)O
18,164 to 166,CCOC(=O)c1nc(-c2cccs2)oc1N
19,112 to 114,COCCNC(=O)c1ccc(Cl)nc1
20,85 to 87,CN1CCN(C(=O)C2CCCNC2)CC1 (centres undefined)
21,183 to 185,NC(=S)c1ccn[nH]1
22,101 to 103,Nc1ccc(CN2CCN(c3ccccn3)CC2)cc1
23,123 to 125,Cn1cc(N2CCNCC2=O)cn1
24,161 to 163,O=C(O)CCNS(=O)(=O)c1ccc(Br)cc1
25,238 to 240,COc1ccc(-c2n[nH]c(=O)c3ccccc23)cc1

# Further lines, the compound ahead of its results:
row,SMILES,melting point [°C]
1,CCCC1CCc2[nH]c(=O)sc2C1 (centres undefined),119 to 121
2,O=C(O)C1CC12CCOc1ccccc12 (centres undefined),159 to 161
3,CC1(C)NC(=O)N(CCC(=O)NN)C1=O,176 to 178
4,COc1ccc(Cl)cc1CS(=O)(=O)Cl,69 to 71
5,CC(=NO)c1ccc(OCc2ccccc2C)cc1,153 to 155
6,CC(C)CNCC(O)c1ccc(F)cc1 (centres undefined),56 to 58
7,COc1ccc(SC)c(OC)c1C(=O)O,117 to 119
8,Nc1cc(-c2cccnc2)no1,174 to 176
9,NCc1cccc(NC(=O)C2CC2)c1,96 to 98
10,Cn1ccnc1-c1ccc([N+](=O)[O-])cc1,107 to 109
11,Nc1ncc(Cc2ccccc2Cl)s1,97 to 99
12,O=C(O)c1nn(-c2cc(C(F)(F)F)ccc2Cl)c2c1CCC2,229 to 231
13,CCC(C)n1ncc(C(=O)O)c1C1CC1 (centres undefined),116 to 118
14,Fc1ccc(NCc2ccccn2)c(F)c1,52 to 54
15,C=CCc1cc(C=O)cc(OC)c1O,80 to 82
16,CCOc1ccc(C(=O)N2CCCC(C(=O)O)C2)cc1OCC (centres undefined),189 to 191
17,O=C(O)c1cc(S(=O)(=O)Cl)c(Br)o1,139 to 141
18,O=C(O)c1cccc(S(=O)(=O)N2CCc3sccc3C2)c1,207 to 209
19,O=S1(=O)CCC(NC2CCNCC2)C1 (centres undefined),84 to 86
20,Brc1ccc(C2CNCCO2)cc1 (centres undefined),53 to 55
21,CC1=NN(c2cc(C)ccc2C)C(=O)C1,164 to 166
22,CCCn1c(=O)[nH]c(=O)c2[nH]cnc21,288 to 290

row,SMILES,melting point [°C]
1,O=C1CCc2ccc(F)cc2N1,187 to 189
2,O=C1CCC(C(=O)O)CN1 (centres undefined),174 to 176
3,S=C=Nc1ccc2ccccc2c1,59 to 61
4,Cc1ccccc1CNC(=O)C(C)Cl (centres undefined),108 to 110
5,CN(C)c1ccc(C(N)=S)cc1,117 to 119
6,NS(=O)(=O)C1CCCC1,76 to 78
7,Cc1ccc(N2C(=O)NC(CCC(=O)O)C2=O)cc1Cl (centres undefined),193 to 195
8,COc1ccc(C(=O)N2CCN(C)CC2)cc1N,114 to 116
9,NS(=O)(=O)NCc1cccnc1,129 to 131
10,Cc1ccc(C)c(SCc2nc3sc(C(=O)O)c(C)c3c(=O)[nH]2)c1,295 to 297
11,O=C(O)c1ccccc1OCc1ccccc1Br,129 to 131
12,Cn1ncc2c(=O)[nH]c(CCl)nc21,232 to 234
13,c1ccc2[nH]c(C3CCNCC3)cc2c1,192 to 194
14,Cc1c(C(=O)C(=O)O)sc2ccccc12,156 to 158
15,NC(=S)Cc1ccc(F)cc1,109 to 111
16,CC1(c2ccc3c(c2)OCCO3)NC(=O)NC1=O (centres undefined),180 to 182
17,CCCn1c(C)cc(/C=C(\C#N)C(=O)O)c1C,199 to 201
18,O=C1CCc2cc(S(=O)(=O)Cl)ccc2N1,205 to 207
19,O=C(O)c1c(C(F)(F)F)nn(-c2ccccc2)c1C(F)(F)F,156 to 158
20,Cc1[nH]c(=O)[nH]c(=O)c1CCC(=O)O,306 to 308
21,O=C1COc2ccc(C(=O)O)cc2N1,228 to 230
22,O=C(CC(=O)C(F)F)c1ccco1,39 to 41

row,SMILES,melting point [°C]
1,NNc1nc2cc(C(F)(F)F)ccc2s1,219 to 221
2,Nc1ccc(-n2ccnc2)cc1C(F)(F)F,109 to 111
3,COCC(C)n1c(SCC(=O)O)nnc1-c1ccccc1 (centres undefined),139 to 141
4,COc1cc2c(cc1NC(=O)OCC(F)(F)F)oc1ccccc12,122 to 124
5,Cc1ccc(C(=O)CCl)s1,45 to 47
6,Cc1ccc(-c2csc3ncnc(Cl)c23)cc1C,179 to 181
7,COC(=O)c1ccc(CNC(=O)C(C)Cl)cc1 (centres undefined),96 to 98
8,O=C(O)CN1C(=O)C2CC=CCC2C1=O (centres undefined),83 to 85
9,O=C(O)Cc1csc2nccn12,259 to 261
10,O=C(O)CCCCCCN1C(=O)C=CC1=O,79 to 81
11,O=c1[nH]cnc2cc(F)ccc12,260 to 262
12,O=C1NCCN1CCN1CCNCC1,139 to 141
13,CN(C)CCOc1cc(C(=O)O)ccn1,173 to 175
14,Cc1ccc(C(C)(C)CC(=O)O)cc1,50 to 57
15,O=S(=O)(c1c[nH]c2ncccc12)N1CCNCC1,207 to 209
16,O=C(CCl)N1c2ccccc2SCC1c1ccccc1 (centres undefined),162 to 164
17,Cc1nnc(C(Cl)(Cl)Cl)o1,47 to 49
18,O=C(Cc1nc2ccccc2[nH]1)C(F)(F)F,249 to 251
19,CCOC(=O)c1cc(N2CCNC(=O)C2)ccc1N,126 to 128
20,COc1ccc2c(c1)OCC2CC(=O)O (centres undefined),94 to 96
21,Cc1ccc(-n2nc(C)c(C(=O)O)n2)c(C)c1,178 to 180
